{"source": "patent US20090111836A1", "about": "“Angular Pyranocoumarins, Process for Preparation and Uses Thereof” (CITY UNIVERSITY OF HONG KONG, priority 2007, published 2009)", "key": {"[1]": {"tested_on": "HepG2-DR cells", "assay": "SRB growth inhibition assay, HepG2-DR", "format": "cell-based, human", "details": "for IC50: Homo sapiens, 72 h, read-out: IC50 (cytotoxicity); for Resistant ratio: IC50 HepG2-DR / IC50 HepG2", "experimental": "(§1) K562, K562-DR, HepG2, HepG2-DR were cultured in RPMI-1640 medium containing 10% fetal bovine serum and 100 U/mL, antibiotics. […] Drug test: […] New calorimetric cytotoxicity assay for anticancer-drug screening. […] Mosmann T. Rapid colorimetric assay for cellular growth and survival: application to proliferation and cytotoxicity assays. […] Gerlier D, Thomasset N. […] Each growth inhibition experiment must be repeated three times and results are expressed as mean±standard deviation (SD). Solvents and media were included as blank control. In SRB assay, cells are inoculated at 5000 cells/well in a 96-well microplate and incubated overnight to let cells adhere. Drug treatment lasts for 72 hours and cells are fixed for 1 hour at 4° C. with 50 μl ice-cold 15% trichloroacetic acid and washed with triple-distilled water 5 times. […] The protein-bound dye is dissolved in 100 μl per well of 10 mM Tris base (pH 10.5). The color intensity of SRB, which positively correlate to cell number in preliminary experiments, is estimated at OD 515 nm."}, "[2]": {"tested_on": "HepG2-DR cells", "assay": "Cell cycle distribution by flow cytometry (doxorubicin-induced G2/M arrest), HepG2-DR", "format": "cell-based, human", "details": "for Cell cycle distribution, G0/G1 / Cell cycle distribution, G2/M / Cell cycle distribution, S / Cell cycle distribution, SubG1: HepG2-DR, 48 h", "experimental": "(§2) 1.2 Instruments: FACSCAN flow cytometry (Becton Dickinson Immunocytometry Systems, San Jose, Calif.), the obtained data were analyzed using the software of Macintosh CellQuest.\n(§3) 1.3 Cell lines: HepG2, HepG2-DR.\n(§4) 1.4 Drug treatment: HepG2 and HepG2-DR cells were respectively treated with each of cis-DMDCK, cis-DMDBK, trans-DMDCK, trans-DMDBK and doxorubicin for 48 hours, or treated respectively with the combination of doxorubicin and one of cis-DMDCK, cis-DMDBK, trans-DMDCK, trans-DMDBK for 48 hours.\n(§5) 1.5 Treatment and detection of sample cells: after washed twice by ice-cold PBS, the cells were fixed with 70% ethanol at −20° C. overnight. The fixed cells were washed by PBS once and resuspended in 1 mL of PBS containing 100 μg/mL RNAase A and incubated at 37° C. for 30 minutes. Finally, propidium iodide solution (final concentration is 40 μg/mL,) was added to bind with DNA and incubated at room temperature for 5-10 minutes. Cells were analyzed by FACSCAN flow cytometry immediately."}, "[3]": {"tested_on": "K562 cells", "assay": "MTT growth inhibition assay, K562", "format": "cell-based", "details": "Homo sapiens", "experimental": "(§6) K562, K562-DR, HepG2, HepG2-DR were cultured in RPMI-1640 medium containing 10% fetal bovine serum and 100 U/mL, antibiotics. […] Drug test: […] New calorimetric cytotoxicity assay for anticancer-drug screening. […] Mosmann T. Rapid colorimetric assay for cellular growth and survival: application to proliferation and cytotoxicity assays. […] Gerlier D, Thomasset N. […] Each growth inhibition experiment must be repeated three times and results are expressed as mean±standard deviation (SD). Solvents and media were included as blank control. In MTT assay, cells are inoculated at 5000 cells/well and are incubated overnight. Drug treatment lasts for 68 h. MTT (5 mg/ml in PBS) is added to each well (1:10 dilution). […] Viable cell number is estimated by correlating to OD at 570 nm."}, "[4]": {"tested_on": "HepG2 cells", "assay": "SRB growth inhibition assay, HepG2", "format": "cell-based", "details": "Homo sapiens, read-out: IC50 (cytotoxicity)", "experimental": "as §1"}, "[5]": {"tested_on": "KB-3-1 cells", "assay": "SRB growth inhibition assay, KB-3-1", "format": "cell-based", "details": "Homo sapiens, read-out: IC50 (cytotoxicity)"}, "[6]": {"tested_on": "HepG2 cells", "assay": "Cell cycle distribution by flow cytometry, HepG2", "format": "cell-based, human", "experimental": "as §2, §3, §4, §5"}, "[7]": {"tested_on": "K562-DR cells", "assay": "MTT growth inhibition assay, K562-DR", "format": "cell-based, human", "details": "for IC50: Homo sapiens, read-out: IC50 (cytotoxicity); for Resistant ratio: IC50 K562-DR / IC50 K562", "experimental": "as §6"}, "[8]": {"tested_on": "KB V1 cells", "assay": "SRB growth inhibition assay, KB V1", "format": "cell-based, human", "details": "for IC50: Homo sapiens, read-out: IC50 (cytotoxicity); for Resistant ratio: IC50 KB V1 / IC50 KB-3-1"}, "[9]": {"tested_on": "Pgp-MDR cells", "details": "Wu et al., Eur J Pharmacol 2003; cited from earlier work"}, "[10]": {"details": "K562, MTT, (×10^−3), read-out: IC50 (cytotoxicity)"}}, "note": "Read-outs that look alike come from different tables or passages of the source.", "data": [{"compound": "COc1cccc2c1C(=O)c1c(O)c3c(c(O)c1C2=O)C[C@@](O)(C(=O)CO)C[C@@H]3O[C@H]1C[C@H](N)[C@H](O)[C@H](C)O1", "note": "[Doxorubicin, reference compound]", "values": [{"measurement": "IC50", "setting": "[1]; HepG2-DR, SRB", "result": "37300 ± 2420", "unit": "nM"}, {"measurement": "Resistant ratio", "setting": "[1]", "result": 219}, {"measurement": "Cell cycle distribution, G0/G1", "setting": "[2]; 1 μM alone", "result": "51.33 ± 0.92", "unit": "%"}, {"measurement": "Cell cycle distribution, G2/M", "setting": "[2]; 1 μM alone", "result": "33.47 ± 0.17", "unit": "%"}, {"measurement": "Cell cycle distribution, S", "setting": "[2]; 1 μM alone", "result": "7.74 ± 3.57", "unit": "%"}, {"measurement": "Cell cycle distribution, SubG1", "setting": "[2]; 1 μM alone", "result": "2.37 ± 0.34", "unit": "%"}, {"measurement": "Cell cycle distribution, G0/G1", "setting": "[2]; 10 μM alone", "result": "24.81 ± 0.23", "unit": "%"}, {"measurement": "Cell cycle distribution, G2/M", "setting": "[2]; 10 μM alone", "result": "60.80 ± 0.79", "unit": "%"}, {"measurement": "Cell cycle distribution, S", "setting": "[2]; 10 μM alone", "result": "6.86 ± 1.80", "unit": "%"}, {"measurement": "Cell cycle distribution, SubG1", "setting": "[2]; 10 μM alone", "result": "3.37 ± 0.17", "unit": "%"}, {"measurement": "Cell cycle distribution, G0/G1", "setting": "[2]; 50 μM alone", "result": "12.05 ± 5.08", "unit": "%"}, {"measurement": "Cell cycle distribution, G2/M", "setting": "[2]; 50 μM alone", "result": "73.43 ± 9.00", "unit": "%"}, {"measurement": "Cell cycle distribution, S", "setting": "[2]; 50 μM alone", "result": "5.58 ± 1.34", "unit": "%"}, {"measurement": "Cell cycle distribution, SubG1", "setting": "[2]; 50 μM alone", "result": "4.88 ± 0.75", "unit": "%"}, {"measurement": "Concentration required for almost a complete G2/M arrest", "setting": "[2]; P-glycoprotein-overexpressing HepG2-DR cells", "result": "over 50 μM"}, {"measurement": "IC50", "setting": "[3]; K562, MTT, read-out: IC50 (cytotoxicity)", "result": "240 ± 80", "unit": "nM"}, {"measurement": "IC50", "setting": "[4]; HepG2, SRB, 72 h", "result": "170 ± 100", "unit": "nM"}, {"measurement": "IC50", "setting": "[5]; KB-3-1, SRB, 72 h", "result": "180 ± 40", "unit": "nM"}, {"measurement": "Cell cycle distribution, G0/G1", "setting": "[6]; HepG2, 0.2 μM alone, 48 h", "result": "4.92 ± 0.91", "unit": "%"}, {"measurement": "Cell cycle distribution, G2/M", "setting": "[6]; HepG2, 0.2 μM alone, 48 h", "result": "76.57 ± 1.32", "unit": "%"}, {"measurement": "Cell cycle distribution, S", "setting": "[6]; HepG2, 0.2 μM alone, 48 h", "result": "8.89 ± 0.83", "unit": "%"}, {"measurement": "Cell cycle distribution, SubG1", "setting": "[6]; HepG2, 0.2 μM alone, 48 h", "result": "0.92 ± 0.45", "unit": "%"}, {"measurement": "Concentration achieving almost a complete G2/M arrest", "setting": "[6]; drug sensitive HepG2 cells", "result": 0.2, "unit": "µM"}, {"measurement": "IC50", "setting": "[7]; K562-DR, MTT", "result": "31000 ± 17100", "unit": "nM"}, {"measurement": "Resistant ratio", "setting": "[7]", "result": 129}, {"measurement": "IC50", "setting": "[8]; KB V1, SRB, 72 h", "result": "32000 ± 2740", "unit": "nM"}, {"measurement": "Resistant ratio", "setting": "[8]", "result": 178}]}, {"compound": "CC(=O)O[C@H]1C(=O)[C@@]2(C)[C@H]([C@H](OC(=O)c3ccccc3)[C@]3(O)C[C@H](OC(=O)[C@H](O)[C@@H](NC(=O)c4ccccc4)c4ccccc4)C(C)=C1C3(C)C)[C@]1(OC(C)=O)CO[C@@H]1C[C@@H]2O", "note": "[Paclitaxel]", "values": [{"measurement": "IC50", "setting": "[1]; HepG2-DR, SRB", "result": "4230 ± 60", "unit": "nM"}, {"measurement": "Resistant ratio", "setting": "[1]", "result": 696}, {"measurement": "IC50", "setting": "[3]; [10]", "result": "0.6 ± 0.23", "unit": "nM"}, {"measurement": "IC50", "setting": "[4]; HepG2, SRB, 72 h, (×10^−3)", "result": "6.07 ± 2.61", "unit": "nM"}, {"measurement": "IC50", "setting": "[5]; KB-3-1, SRB, 72 h", "result": "2 ± 1", "unit": "nM"}, {"measurement": "IC50", "setting": "[7]; K562-DR, MTT", "result": "3250 ± 450", "unit": "nM"}, {"measurement": "Resistant ratio", "setting": "[7]", "result": 5417}, {"measurement": "IC50", "setting": "[8]; KB V1, SRB, 72 h", "result": "8000 ± 1480", "unit": "nM"}, {"measurement": "Resistant ratio", "setting": "[8]", "result": 4000}]}, {"compound": "COc1ccc(C[C@H](N)C(=O)N[C@H]2[C@@H](O)[C@H](n3cnc4c(N(C)C)ncnc43)O[C@@H]2CO)cc1", "note": "[Puromycin]", "values": [{"measurement": "IC50", "setting": "[1]", "result": "104000 ± 2480", "unit": "nM"}, {"measurement": "Resistant ratio", "setting": "[1]", "result": 597}, {"measurement": "IC50", "setting": "[3]; K562, read-out: IC50 (cytotoxicity)", "result": "390 ± 160", "unit": "nM"}, {"measurement": "IC50", "setting": "[4]; HepG2, 72 h", "result": "170 ± 70", "unit": "nM"}, {"measurement": "IC50", "setting": "[5]; KB 3-1, 72 h", "result": "210 ± 50", "unit": "nM"}, {"measurement": "IC50", "setting": "[7]", "result": "47700 ± 9000", "unit": "nM"}, {"measurement": "Resistant ratio", "setting": "[7]", "result": 122}, {"measurement": "IC50", "setting": "[8]; KB-V1, 72 h", "result": "79300 ± 8810", "unit": "nM"}, {"measurement": "Resistant ratio", "setting": "[8]", "result": 378}]}, {"compound": "CC[C@]1(O)C[C@@H]2CN(CCc3c([nH]c4ccccc34)[C@@](C(=O)OC)(c3cc4c(cc3OC)N(C)[C@H]3[C@@](O)(C(=O)OC)[C@H](OC(C)=O)[C@]5(CC)C=CCN6CC[C@]43[C@@H]65)C2)C1", "note": "[Vinblastine]", "values": [{"measurement": "IC50", "setting": "[1]; HepG2-DR, SRB", "result": "310 ± 60", "unit": "nM"}, {"measurement": "Resistant ratio", "setting": "[1]", "result": 3100}, {"measurement": "IC50", "setting": "[3]; [10]", "result": "0.88 ± 0.25", "unit": "nM"}, {"measurement": "IC50", "setting": "[4]; HepG2, SRB, 72 h, (×10^−3)", "result": "0.1 ± 0.01", "unit": "nM"}, {"measurement": "IC50", "setting": "[5]; KB-3-1, SRB, 72 h, (×10^−3)", "result": "0.11 ± 0.01", "unit": "nM"}, {"measurement": "IC50", "setting": "[7]; K562-DR, MTT", "result": "200 ± 70", "unit": "nM"}, {"measurement": "Resistant ratio", "setting": "[7]", "result": 227}, {"measurement": "IC50", "setting": "[8]; KB V1, SRB, 72 h", "result": "1040 ± 340", "unit": "nM"}, {"measurement": "Resistant ratio", "setting": "[8]", "result": 9271}]}, {"compound": "(±)-Praeruptorin A", "values": [{"measurement": "Enhancement of drug sensitivity of Pgp-MDR cells", "setting": "[9]", "result": "only moderate"}]}]}
